In patent US4708964A, “Lipoxygenase inhibitors” (Chemex Pharmaceuticals, priority 1984, dated 1987):
Like-named read-outs stand apart in the source and are kept apart here.

Biological target: T1, soybean lipoxidase type V (Glycine max, UniProt P08170)
T1 sequence (P08170 1-839): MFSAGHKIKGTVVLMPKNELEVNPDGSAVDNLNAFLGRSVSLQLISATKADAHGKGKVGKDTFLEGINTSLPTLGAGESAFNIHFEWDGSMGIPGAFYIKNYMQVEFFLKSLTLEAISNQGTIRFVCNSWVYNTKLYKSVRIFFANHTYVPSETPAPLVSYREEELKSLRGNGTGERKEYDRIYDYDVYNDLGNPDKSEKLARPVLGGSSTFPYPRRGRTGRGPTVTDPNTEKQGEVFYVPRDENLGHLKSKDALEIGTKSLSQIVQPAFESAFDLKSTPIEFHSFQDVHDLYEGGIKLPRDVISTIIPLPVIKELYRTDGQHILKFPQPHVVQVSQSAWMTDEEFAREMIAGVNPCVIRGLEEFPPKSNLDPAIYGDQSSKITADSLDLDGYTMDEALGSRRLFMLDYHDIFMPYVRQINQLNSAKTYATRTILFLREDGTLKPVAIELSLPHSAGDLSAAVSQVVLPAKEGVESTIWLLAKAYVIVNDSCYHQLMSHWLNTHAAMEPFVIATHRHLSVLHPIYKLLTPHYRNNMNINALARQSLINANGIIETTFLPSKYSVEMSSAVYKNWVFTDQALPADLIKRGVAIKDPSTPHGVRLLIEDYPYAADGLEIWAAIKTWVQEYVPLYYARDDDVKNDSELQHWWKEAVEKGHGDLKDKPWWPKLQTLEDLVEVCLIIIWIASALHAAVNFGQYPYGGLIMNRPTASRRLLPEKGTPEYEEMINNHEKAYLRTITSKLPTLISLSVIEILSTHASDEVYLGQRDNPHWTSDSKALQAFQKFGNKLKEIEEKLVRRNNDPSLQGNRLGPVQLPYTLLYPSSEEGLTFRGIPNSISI
Conditions: for A234 nm/min.: 25° C., 0.1M borate pH 9

Structure (SMILES) | A234 nm/min. (NDGA 1.3 × 10^-4 M) | A234 nm/min. (NDGA 2.6 × 10^-4 M) | A234 nm/min. (NDGA 3.2 × 10^-4 M) | A234 nm/min. (NDGA 3.9 × 10^-4 M) | inhibition at 130 µM (pH 9) | inhibition at 260 µM (pH 9) | inhibition at 320 µM (pH 9) | A234 nm/min. (alpha-Naphthol 2.5 × 10^-5 M) | A234 nm/min. (alpha-Naphthol 6.2 × 10^-5 M) | A234 nm/min. (alpha-Naphthol 7.5 × 10^-5 M) | A234 nm/min. (alpha-Naphthol 8.8 × 10^-5 M) | A234 nm/min. (alpha-Naphthol 12.5 × 10^-5 M) | inhibition at 25 µM (pH 9) | inhibition at 62 µM (pH 9) | inhibition at 75 µM (pH 9) | inhibition at 88 µM (pH 9) | inhibition at 125 µM (pH 9)
CC(Cc1ccc(O)c(O)c1)C(C)Cc1ccc(O)c(O)c1 (centres unmarked) [NDGA, nordihydroguaiaretic acid] | 0.217 min⁻¹ | 0.186 min⁻¹ | 0.100 min⁻¹ | 0.035 min⁻¹ | 1% | 14% | 54% |  |  |  |  |  |  |  |  |  | 
Oc1cccc2ccccc12 [alpha-Naphthol, alpha-naphthol] |  |  |  |  |  |  |  | .230 min⁻¹ | .141 min⁻¹ | .074 min⁻¹ | .069 min⁻¹ | .021 min⁻¹ | 12% | 46% | 72% | 74% | 92%
